This note sets out measurements from patent publication EP4748839A1 (CSPC Zhongqi Pharmaceutical Technology (Shijiazhuang) Co., …, priority 2023, dated 2025).

The EC50 is the concentration that produces a half-maximal response. Lower therefore signals an effect from little substance.

The assay addresses T1, GLP-1R (Homo sapiens, UniProt P43220).
T1 construct: expressed in transfected cells
The assay can be described thus: GLP-1R agonistic effect in GLP1R-cAmp-Luc cells (luciferase reporter; titled 'Enzymatic assay'). The class given is cell-based. The note with it: for EC50: 4 hours incubation, firefly luciferin signal; for EC50 of Positive reference / EC50 of Compound of the Present Application: Positive reference is PF-06882961. On the procedure:
The GLP-1R agonistic effects of the test compounds were determined using GLP1R-cAmp-Luc cells. 1) The test compound was dissolved in DMSO and mixed well until the test compound was completely dissolved. The test compounds were dissolved in DMSO to prepare 10 mM stock solutions. All compounds were diluted with DMEM medium (high sugar, Puromycin^+, Hygromycin B^+) to an initial concentration of 1250 nM, and then subjected to 5-fold serial dilution to a total of 7 concentration gradients. The GLP1R-cAmp-Luc cells were seeded in white-wall 96-well cell culture plates at a density of 1×10^5/mL, with 90 µL cell suspension per well; the test compound at each of the 7 concentration gradients was added at 10 µL per well, with the actual initial working concentration of 125 nM; and the cells were placed in a 37 °C, 5% CO2 cell incubator for 4 hours; 2) 100 µL of luciferin potassium salt solution diluted to 300 µg/mL in PBS was added to each well at a working concentration of 150 µg/mL and incubated at room temperature for 30 minutes; 3) fluorescence signals of firefly luciferin were measured with a multifunctional microplate reader (PerkinElmer, Nivo); and the fluorescence values were processed using GraphPad Prism software to calculate EC50 values.

T1 sequence (P43220 24-463, species assumed): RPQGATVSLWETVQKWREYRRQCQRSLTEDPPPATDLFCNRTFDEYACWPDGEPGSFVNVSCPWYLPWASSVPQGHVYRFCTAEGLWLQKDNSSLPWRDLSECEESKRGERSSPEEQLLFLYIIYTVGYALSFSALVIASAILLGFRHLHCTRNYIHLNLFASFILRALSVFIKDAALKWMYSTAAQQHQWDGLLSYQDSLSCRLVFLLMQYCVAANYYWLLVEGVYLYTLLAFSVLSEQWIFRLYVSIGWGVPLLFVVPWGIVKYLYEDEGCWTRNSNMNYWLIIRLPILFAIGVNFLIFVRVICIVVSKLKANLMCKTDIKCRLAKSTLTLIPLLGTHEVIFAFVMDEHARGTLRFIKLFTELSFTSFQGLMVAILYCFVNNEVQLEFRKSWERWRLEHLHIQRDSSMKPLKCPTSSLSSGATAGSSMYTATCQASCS

In the case of `COc1cc(C(=O)O)cc2c1nc(Cc1c(F)cc(-c3ccc(Cl)c(OCc4ccc(Cl)cc4F)n3)c3c1CCO3)n2C[C@@H]1CCO1` [Compound 108, (S)-2-((7-(5-chloro-6-((4-chloro-2-fluorobenzyl)oxy)pyridin-2-yl)-5-fluoro-2,3-dihydrobenzofuran-4-yl)methyl)-4-methoxy-1-(oxetan-2-ylmethyl)-1H-benzo[d]imidazole-6-carboxylic acid], the EC50 was in the range of 1 to 5 nM.

In turn, `COc1cc(C(=O)O)cc2c1nc(Cc1c(F)cc(-c3ccc(Br)c(OCc4ccc(Cl)cc4F)n3)c3c1CCO3)n2C[C@@H]1CCO1` [Compound 109, (S)-2-((7-(5-bromo-6-((4-chloro-2-fluorobenzyl)oxy)pyridin-2-yl)-5-fluoro-2,3-dihydrobenzofuran-4-yl)methyl)-4-methoxy-1-(oxetan-2-ylmethyl)-1H-benzo[d]imidazole-6-carboxylic acid] returned an EC50 of 1 to 5 nM.

Consider `COc1cc(C(F)(F)F)ccc1COc1nccc(-c2cc(F)c(Cc3nc4c(OC)cc(C(=O)O)cc4n3C[C@@H]3CCO3)c3c2OCC3)n1` [Compound 110, (S)-2-((7-(2-((2-methoxy-4-(trifluoromethyl)benzyl)oxy)pyrimidin-4-yl)-5-fluoro-2,3-dihydrobenzofuran-4-yl)methyl)-4-methoxy-1-(oxetan-2-ylmethyl)-1H-benzo[d]imidazole-6-carboxylic acid], for which the concentration giving a half-maximal response (EC50) is at most 1 nM and the “EC50 of Positive reference / EC50 of Compound of the Present Application” value was “Ratio ≥10”.

The compound `CCn1cncc1Cn1c(Cc2c(F)cc(-c3cccc(OCc4ccc(Cl)cc4F)n3)c3c2CCO3)nc2c(OC)cc(C(=O)O)cc21` [Compound 111] yielded an EC50 of 1 to 5 nM.

In turn, `COc1cc(C(=O)O)cc2c1nc(Cc1c(F)cc(-c3ccnc(OCc4ccc(Cl)cc4F)n3)c3c1CCO3)n2CC1(CF)CC1` [Compound 112, 2-((7-(2-((4-Chloro-2-fluorobenzyl)oxy)pyrimidin-4-yl)-5-fluoro-2,3-dihydrobenzofuran-4-yl)methyl)-1-((1-(fluoromethyl)cyclopropyl)methyl)-4-methoxy-1H-benzo[d]imidazole-6-carboxylic acid] had an EC50 of 1 to 5 nM.

On to `COc1cc(C(=O)O)cc2c1nc(Cc1c(F)cc(-c3ccnc(OCc4ccc(Cl)cc4OC(F)F)n3)c3c1CCO3)n2C[C@@H]1CCO1` [Compound 113, (S)-2-((7-(2-((2-difluoromethoxy-4-chlorobenzyl)oxy)pyrimidin-4-yl)-5-fluoro-2,3-dihydrobenzofuran-4-yl)methyl)-4-methoxy-1-(oxetan-2-ylmethyl)-1H-benzo[d]imidazole-6-carboxylic acid], for which the EC50 is at most 1 nM and the “EC50 of Positive reference / EC50 of Compound of the Present Application” value is given as “Ratio ≥10”.

As for `COc1cc(C(=O)O)cc2c1nc(Cc1c(F)cc(-c3ccc(F)c(OCc4ccc(Cl)cc4OC(F)F)n3)c3c1CCO3)n2C[C@@H]1CCO1` [Compound 114], the EC50 was at most 1 nM and the “EC50 of Positive reference / EC50 of Compound of the Present Application” value is “Ratio ≥10”.

As to `COc1cc(C(=O)O)cc2c1nc(Cc1c(F)cc(-c3ccc(F)c(OCc4ccc(C#N)cc4F)n3)c3c1CCO3)n2C[C@@H]1CCO1` [Compound 115], the EC50 is at most 1 nM and the “EC50 of Positive reference / EC50 of Compound of the Present Application” value is given as “Ratio ≥10”.

For the compound `COc1cc(C(F)(F)F)ccc1COc1nc(-c2cc(F)c(Cc3nc4c(OC)cc(C(=O)O)cc4n3C[C@@H]3CCO3)c3c2OCC3)ccc1F` [Compound 116, (S)-2-((7-(5-fluoro-6-((2-methoxy-4-(trifluoromethyl)benzyl)oxy)pyridin-2-yl)-5-fluoro-2,3-dihydrobenzofuran-4-yl)methyl)-4-methoxy-1-(oxetan-2-ylmethyl)-1H-benzo[d]imidazole-6-carboxylic acid], the EC50 is at most 1 nM and the “EC50 of Positive reference / EC50 of Compound of the Present Application” value is listed as “Ratio ≥10”.

For `COc1cc(C(=O)O)cc2c1nc(Cc1c(F)cc(-c3nccc(OCc4ccc(Cl)cc4F)n3)c3c1CCO3)n2C[C@@H]1CCO1` [Compound 117, (S)-2-((7-(4-((4-chloro-2-fluorobenzyl)oxy)pyrimidin-2-yl)-5-fluoro-2,3-dihydrobenzofuran-4-yl)methyl)-4-methoxy-1-(oxetan-2-ylmethyl)-1H-benzo[d]imidazole-6-carboxylic acid], the EC50 is at most 1 nM and the “EC50 of Positive reference / EC50 of Compound of the Present Application” value is recorded as “Ratio ≥10”.

Compound `CC(C)Oc1cc(C(=O)O)cc2c1nc(Cc1c(F)cc(-c3ccnc(OCc4ccc(Cl)cc4F)n3)c3c1CCO3)n2C[C@@H]1CCO1` [Compound 119, (S)-2-((7-(2-((4-chloro-2-fluorobenzyl)oxy)-pyrimidin-4-yl)-5-fluoro-2,3-dihydrobenzofuran-4-yl)methyl)-4-isopropoxy-1-(oxetan-2-ylmethyl)-1H-benzo[d]imidazole-6-carboxylic acid] showed an EC50 of 1 to 5 nM.

As to `COc1cc(C(=O)O)cc2c1nc(Cc1c(F)cc(-c3ccnc(OCc4ccc(C5COC5)cc4F)n3)c3c1CCO3)n2C[C@@H]1CCO1` [Compound 120, (S)-2-((7-(2-((2-fluoro-4-(oxetan-3-yl)benzyl)oxy)pyrimidin-4-yl)-5-fluoro-2,3-dihydrobenzofuran-4-yl)methyl)-4-methoxy-1-(oxetan-2-ylmethyl)-1H-benzo[d]imidazole-6-carboxylic acid], the EC50 was at most 1 nM and the “EC50 of Positive reference / EC50 of Compound of the Present Application” value is given as “Ratio ≥10”.

Take `CCOc1cc(C(=O)O)cc2c1nc(Cc1c(F)cc(-c3ccnc(OCc4ccc(Cl)cc4F)n3)c3c1CCO3)n2C[C@@H]1CCO1` [Compound 121, (S)-2-((7-(2-((4-chloro-2-fluorobenzyl)oxy)pyrimidin-4-yl)-5-fluoro-2,3-dihydrobenzofuran-4-yl)methyl)-4-ethoxy-1-(oxetan-2-ylmethyl)-1H-benzo[d]imidazole-6-carboxylic acid]: the EC50 is at most 1 nM and the “EC50 of Positive reference / EC50 of Compound of the Present Application” value is given as “Ratio ≥10”.

Regarding `CCOc1cc(C(=O)O)cc2c1nc(Cc1c(F)cc(-c3ccc(F)c(OCc4ccc(Cl)cc4F)n3)c3c1CCO3)n2C[C@@H]1CCO1` [Compound 122, (S)-2-((7-(6-((4-chloro-2-fluorobenzyl)oxy)-5-fluoropyridin-2-yl)-5-fluoro-2,3-dihydrobenzofuran-4-yl)methyl)-4-ethoxy-1-(oxetan-2-ylmethyl)-1H-benzo[d]imidazole-6-carboxylic acid], the EC50 was 1 to 5 nM and the “EC50 of Positive reference / EC50 of Compound of the Present Application” value is reported as “Ratio ≥10”.

`O=C(O)c1ccc2nc(Cc3c(F)cc(-c4ccnc(OCc5ccc(Cl)cc5F)n4)c4c3CCO4)n(C[C@@H]3CCO3)c2c1` [Compound 124, (S)-2-((7-(2-((4-chloro-2-fluorobenzyl)oxy)pyrimidin-4-yl)-5-fluoro-2,3-dihydrobenzofuran-4-yl)methyl)-1-(oxetan-2-ylmethyl)-1H-benzo[d]imidazole-6-carboxylic acid] registered an EC50 of at most 1 nM.

Consider `COc1cc(C(F)(F)F)ccc1COc1ccnc(-c2cc(F)c(Cc3nc4c(OC)cc(C(=O)O)cc4n3C[C@@H]3CCO3)c3c2OCC3)n1` [Compound 125, (S)-2-((7-(4-((2-methoxy-4-(trifluoromethyl)benzyl)oxy)pyrimidin-2-yl)-5-fluoro-2,3-dihydrobenzofuran-4-yl)methyl)-4-methoxy-1-(oxetan-2-ylmethyl)-1H-benzo[d]imidazole-6-carboxylic acid], for which the EC50 was at most 1 nM and the “EC50 of Positive reference / EC50 of Compound of the Present Application” value is recorded as “Ratio ≥10”.

Turning to `COc1cc(C(=O)O)cc2c1nc(Cc1c(F)cc(-c3ccc(F)c(OCc4ccc(C5COC5)cc4F)n3)c3c1CCO3)n2C[C@@H]1CCO1` [Compound 126, (S)-2-((7-(5-fluoro-6-((2-fluoro-4-(oxetan-3-yl)benzyl)oxy)pyridin-2-yl)-5-fluoro-2,3-dihydrobenzofuran-4-yl)methyl)-4-methoxy-1-(oxetan-2-ylmethyl)-1H-benzo[d]imidazole-6-carboxylic acid], the EC50 was at most 1 nM and the “EC50 of Positive reference / EC50 of Compound of the Present Application” value is listed as “Ratio ≥10”.

For `COc1cc(C(=O)O)cc2c1nc(Cc1c(F)cc(-c3nccc(OCc4ccc(C5COC5)cc4F)n3)c3c1CCO3)n2C[C@@H]1CCO1` [Compound 127, (S)-2-((7-(4-((2-fluoro-4-(oxetan-3-yl)benzyl)oxy)pyrimidin-2-yl)-5-fluoro-2,3-dihydrobenzofuran-4-yl)methyl)-4-methoxy-1-(oxetan-2-ylmethyl)-1H-benzo[d]imidazole-6-carboxylic acid], the 50% effective concentration (EC50) was 1 to 5 nM.

Regarding `COc1cc(C(=O)O)cc2c1nc(Cc1c(F)cc(-c3nc(OCc4ccc(C5COC5)cc4F)ncc3F)c3c1CCO3)n2C[C@@H]1CCO1` [Compound 128, (S)-2-((7-(5-fluoro-2-((2-fluoro-4-(oxetan-3-yl)benzyl)oxy)pyrimidin-4-yl)-5-fluoro-2,3-dihydrobenzofuran-4-yl)methyl)-4-methoxy-1-(oxetan-2-ylmethyl)-1H-benzo[d]imidazole-6-carboxylic acid], the EC50 is at most 1 nM and the “EC50 of Positive reference / EC50 of Compound of the Present Application” value was “Ratio ≥10”.

Compound `COc1cc(C(=O)O)cc2c1nc(Cc1c(F)cc(-c3ncc(F)c(OCc4ccc(C5COC5)cc4F)n3)c3c1CCO3)n2C[C@@H]1CCO1` [Compound 129, (S)-2-((7-(5-fluoro-4-((2-fluoro-4-(oxetan-3-yl)benzyl)oxy)pyrimidin-2-yl)-5-fluoro-2,3-dihydrobenzofuran-4-yl)methyl)-4-methoxy-1-(oxetan-2-ylmethyl)-1H-benzo[d]imidazole-6-carboxylic acid] came in with an EC50 of at most 1 nM.
